The record followed here is patent US20250002475A1 (EPICS THERAPEUTICS, priority 2023, published 2025).

SMILES strings stand for the structures.

One experiment concerns Kasumi-1 cells. The experiment in a line: Kasumi-1 cellular viability assay (ATP-Lite, 72 h). It is filed as cell-based. As to conditions: Homo sapiens, ATP-Lite luminescence, % viability relative to DMSO. The procedure, abridged: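 Viability was read by ATP-Lite One Step luminescence after 72 h compound treatment at 37 °C/5% CO2, normalised to DMSO control, with IC50 fitted from concentration-response. Cells were Kasumi-1 (AML FAB M2) at 15000 per well in RPMI-1640/10% FBS, 0.1% DMSO final.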

A further experiment relates to Caov-3 cells. Description: Caov-3 cellular viability assay (ATP-Lite, 72 h). Conditions: Homo sapiens, ATP-Lite luminescence, % viability relative to DMSO. Type of experiment: cell-based. Summed up: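 IC50 values come from concentration-response fits of luminescent ATP content (ATP-Lite One Step), normalised as % viability versus DMSO. Compound exposure was 72 h at 37 °C in RPMI-1640/10% FBS with 0.1% final DMSO. Wells held 10000 cells each.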

Experiment [1] concerns the target T1, recombinant METTL3/METTL14 complex (Homo sapiens, UniProt Q86U44).
T1 construct: purchased Active Motif 311970; host or cells: Sf9 cells
The experiment in a line: METTL3/14 Scintillation Proximity Assay (SPA), RNA methyltransferase activity. It is filed as biochemical. Conditions: 5.31 nM METTL3/14 complex, 250 nM RNA substrate, 1 μM 3H-SAM, 90 min; for compounds marked * best of the two separated forms.

T1 sequence (Q86U44 whole entry): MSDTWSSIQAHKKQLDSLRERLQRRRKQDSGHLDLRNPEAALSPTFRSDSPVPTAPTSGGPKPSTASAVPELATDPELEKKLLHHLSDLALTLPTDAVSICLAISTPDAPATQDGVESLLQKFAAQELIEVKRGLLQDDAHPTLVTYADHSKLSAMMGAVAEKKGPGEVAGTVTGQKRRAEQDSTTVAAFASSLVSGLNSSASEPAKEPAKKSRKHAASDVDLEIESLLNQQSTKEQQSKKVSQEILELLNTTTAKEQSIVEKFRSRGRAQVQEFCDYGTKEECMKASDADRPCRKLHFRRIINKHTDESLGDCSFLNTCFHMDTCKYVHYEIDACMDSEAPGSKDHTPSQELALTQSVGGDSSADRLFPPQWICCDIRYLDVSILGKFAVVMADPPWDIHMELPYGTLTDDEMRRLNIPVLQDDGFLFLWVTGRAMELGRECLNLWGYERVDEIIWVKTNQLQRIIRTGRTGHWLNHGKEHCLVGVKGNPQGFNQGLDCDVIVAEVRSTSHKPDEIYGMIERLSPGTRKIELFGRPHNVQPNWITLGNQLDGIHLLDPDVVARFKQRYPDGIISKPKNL
T1 sequence (Q9HCE5 whole entry partner): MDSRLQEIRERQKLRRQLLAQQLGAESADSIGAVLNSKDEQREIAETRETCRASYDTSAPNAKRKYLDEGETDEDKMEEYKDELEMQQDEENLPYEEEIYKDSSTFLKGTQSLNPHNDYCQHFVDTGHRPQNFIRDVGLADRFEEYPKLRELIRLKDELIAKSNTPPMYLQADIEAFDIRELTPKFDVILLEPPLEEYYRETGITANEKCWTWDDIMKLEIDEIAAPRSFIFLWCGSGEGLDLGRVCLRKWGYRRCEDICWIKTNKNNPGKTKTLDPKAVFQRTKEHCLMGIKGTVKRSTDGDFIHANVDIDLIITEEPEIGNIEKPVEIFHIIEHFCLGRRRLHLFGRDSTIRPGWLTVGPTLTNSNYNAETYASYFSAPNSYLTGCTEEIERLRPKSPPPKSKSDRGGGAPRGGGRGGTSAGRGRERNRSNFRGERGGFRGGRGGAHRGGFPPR

One may read the IC50 as the concentration that gives 50% inhibition. On to `CC(c1ccc(N2CCC[C@@H](NCC3CC3)C2)nn1)c1nnc(-c2cncc(C3CC3)c2)s1` (stereo partly drawn) [Compound 358, (3R)—N-(cyclopropylmethyl)-1-(6-(1-(5-(5-cyclopropylpyridin-3-yl)-1,3,4-thiadiazol-2-yl)ethyl)pyridazin-3-yl)piperidin-3-amine], for which the IC50 was 0.5 to 5 µM in the experiment on Kasumi-1 cells, at most 0.5 µM in the experiment with Caov-3 cells and at most 0.05 µM in experiment [1].

As to `CC(c1cnn(-c2cncc(N3CCCC3)n2)c1)n1ccc(N2CCC[C@@H](NCC3CC3)C2)cc1=O` (single isomer, unassigned) [Compound 220], the IC50 in the experiment on Kasumi-1 cells is at most 0.5 µM; in the experiment on Caov-3 cells it was at most 0.5 µM; in experiment [1] it was at most 0.05 µM.

As to `CC(n1cc(-c2cncc(C3CC3)c2)nn1)n1ccc(N2CCC[C@@H](NCC3CC3)C2)cc1=O` (stereo partly drawn) [Compound 320, 4-((R)-3-((cyclopropylmethyl)amino)piperidin-1-yl)-1-(1-(4-(5-cyclopropylpyridin-3-yl)-1H-1,2,3-triazol-1-yl)ethyl)pyridin-2(1H)-one], the concentration for half-maximal inhibition (IC50) is at most 0.5 µM in the experiment on Kasumi-1 cells, at most 0.5 µM with Caov-3 cells and at most 0.05 µM in experiment [1].

Turning to `c1cc(C2(n3cc(-c4cncc(N5CCC6(CC6)C5)n4)nn3)COC2)ncc1N1CCC[C@@H](NCC2CC2)C1` [Compound 222, (R)-1-(6-(3-(4-(6-(5-azaspiro[2.4]heptan-5-yl)pyrazin-2-yl)-1H-1,2,3-triazol-1-yl)oxetan-3-yl)pyridin-3-yl)-N-(cyclopropylmethyl)piperidin-3-amine], the IC50 is at most 0.5 µM in the experiment with Kasumi-1 cells, at most 0.5 µM with Caov-3 cells and at most 0.05 µM in experiment [1].

Regarding `CCC(c1ccc(N2CCC[C@@H](NCC3CCC3)C2)nn1)n1cc(-c2cncc(OC)c2)nn1` (single isomer, unassigned) [Compound 085], the 50% inhibitory concentration (IC50) is over 5 µM in the experiment with Kasumi-1 cells, 0.5 to 5 µM in the experiment with Caov-3 cells and at most 0.05 µM in experiment [1].

On to `COc1cncc(-c2cn(C(C)c3ccc(N4CCC[C@@H](NCC5CCC5)C4)cn3)cn2)c1` (stereo partly drawn) [Compound 276, (3R)—N-(cyclobutylmethyl)-1-(6-(1-(4-(5-methoxypyridin-3-yl)-1H-imidazol-1-yl)ethyl)pyridin-3-yl)piperidin-3-amine], for which the IC50 is 0.5 to 5 µM with Kasumi-1 cells, at most 0.5 µM with Caov-3 cells and at most 0.05 µM in experiment [1].

Regarding `CC(n1cc(-c2cncc(N3CC4CC4C3)n2)nn1)n1ccc(N2CCC[C@@H](NCC3CC3)C2)cc1=O` (single isomer, unassigned) [Compound 234], the half-maximal inhibitory concentration (IC50) in the experiment on Kasumi-1 cells is at most 0.5 µM; with Caov-3 cells, at most 0.5 µM; in experiment [1], at most 0.05 µM.

Consider `O=C(Nc1cc(=O)n2ccccc2n1)C1(c2ccc(N3CCC[C@@H](NCC4CC4)C3)cn2)COC1` [Compound 217, (R)-3-(5-(3-((cyclopropylmethyl)amino)piperidin-1-yl)pyridin-2-yl)-N-(4-oxo-4H-pyrido[1,2-a]pyrimidin-2-yl)oxetane-3-carboxamide], for which the IC50 was at most 0.5 µM with Kasumi-1 cells, at most 0.5 µM with Caov-3 cells and at most 0.05 µM in experiment [1].

For the compound `COc1cc(-c2cn(Cc3nnc(N4CCCC(NCC5CCC5)C4)s3)nn2)c2cn[nH]c2c1` (stereo not drawn) [Compound 036, N-(cyclobutylmethyl)-1-(5-((4-(6-methoxy-1H-indazol-4-yl)-1H-1,2,3-triazol-1-yl)methyl)-1,3,4-thiadiazol-2-yl)piperidin-3-amine], the half-inhibitory concentration (IC50) in the experiment with Kasumi-1 cells is over 5 µM; with Caov-3 cells, over 5 µM; in experiment [1], at most 0.05 µM.

In the case of `O=C(Nc1cc(=O)n2ccccc2n1)C1(c2ccc(N3CCC[C@@H](NCC4CCC4)C3)cn2)COC1` [Compound 239, (R)-3-(5-(3-((cyclobutylmethyl)amino)piperidin-1-yl)pyridin-2-yl)-N-(4-oxo-4H-pyrido[1,2-a]pyrimidin-2-yl)oxetane-3-carboxamide], the values for the IC50 (in the experiment with Kasumi-1 cells; in the experiment with Caov-3 cells; in experiment [1]) were at most 0.5 µM, at most 0.5 µM and at most 0.05 µM, respectively.

For `COc1cc(-c2cn(Cc3ccc(N4CCC[C@@H](NCC56CC(F)(C5)C6)C4)nn3)nn2)c2cn[nH]c2c1` [Compound 018, (R)-N-((3-fluorobicyclo[1.1.1]pentan-1-yl)methyl)-1-(6-((4-(6-methoxy-1H-indazol-4-yl)-1H-1,2,3-triazol-1-yl)methyl)pyridazin-3-yl)piperidin-3-amine], the IC50 with Kasumi-1 cells is 0.5 to 5 µM; in the experiment with Caov-3 cells, at most 0.5 µM; in experiment [1], at most 0.05 µM.

On to `c1cc(C2(n3cc(-c4cncc(C5CC5)n4)nn3)COC2)ncc1N1CCC[C@@H](NCC2CCC2)C1` [Compound 283, (R)-N-(cyclobutylmethyl)-1-(6-(3-(4-(6-cyclopropylpyrazin-2-yl)-1H-1,2,3-triazol-1-yl)oxetan-3-yl)pyridin-3-yl)piperidin-3-amine], for which the half-inhibitory concentration (IC50) is at most 0.5 µM in the experiment with Kasumi-1 cells, at most 0.5 µM in the experiment on Caov-3 cells and at most 0.05 µM in experiment [1].

Regarding `COc1cncc(-c2cn(C(C)(C)c3ccc(N4CCC[C@@H](NCC5CCC5)C4)nn3)nn2)c1` [Compound 082, (R)-N-(cyclobutylmethyl)-1-(6-(2-(4-(5-methoxypyridin-3-yl)-1H-1,2,3-triazol-1-yl)propan-2-yl)pyridazin-3-yl)piperidin-3-amine], the figures for the 50% inhibitory concentration (IC50) (in the experiment with Kasumi-1 cells; in the experiment with Caov-3 cells; in experiment [1]) were 0.5 to 5 µM, 0.5 to 5 µM and at most 0.05 µM, respectively.

Consider `c1nnc(-c2cn(C3(c4ccc(N5CCC[C@@H](NCC6CC6)C5)cn4)COC3)nn2)cc1C1CC1` [Compound 343, (R)-N-(cyclopropylmethyl)-1-(6-(3-(4-(5-cyclopropylpyridazin-3-yl)-1H-1,2,3-triazol-1-yl)oxetan-3-yl)pyridin-3-yl)piperdin-3-amine], for which the values for the IC50 (with Kasumi-1 cells; in the experiment on Caov-3 cells; in experiment [1]) were 0.5 to 5 µM, at most 0.5 µM and at most 0.05 µM, respectively.

Take `c1ncc(N2CCCC2)cc1-c1cn(C2(c3ccc(N4CCC[C@@H](NCC5CC5)C4)nc3)COC2)nn1` [Compound 223, (R)-N-(cyclopropylmethyl)-1-(5-(3-(4-(5-(pyrrolidin-1-yl)pyridin-3-yl)-1H-1,2,3-triazol-1-yl)oxetan-3-yl)pyridin-2-yl)piperidin-3-amine]: the results for the half-maximal inhibitory concentration (IC50) (in the experiment on Kasumi-1 cells; in the experiment on Caov-3 cells; in experiment [1]) were at most 0.5 µM, at most 0.5 µM and at most 0.05 µM, respectively.

For the compound `CC(n1cc(-c2cncc(N3CC4(COC4)C3)n2)nn1)n1ccc(N2CCC[C@@H](NCC3CC3)C2)cc1=O` (single isomer, unassigned) [Compound 237], the IC50 in the experiment on Kasumi-1 cells was 0.5 to 5 µM; in the experiment on Caov-3 cells it was 0.5 to 5 µM; in experiment [1], at most 0.05 µM.

Regarding `COc1cncc(-c2cn(C(C)n3ccc(N4CCC[C@@H](NCC5CCC5)C4)c(F)c3=O)nn2)c1` (stereo partly drawn) [Compound 126, 4-((R)-3-((cyclobutylmethyl)amino)piperidin-1-yl)-3-fluoro-1-(1-(4-(5-methoxypyridin-3-yl)-1H-1,2,3-triazol-1-yl)ethyl)pyridin-2(1H)-one], the concentration for half-maximal inhibition (IC50) was over 5 µM in the experiment with Kasumi-1 cells, 0.5 to 5 µM with Caov-3 cells and at most 0.05 µM in experiment [1].

As for `CC(n1cc(-c2cncc(N3CCN(C)C3=O)c2)nn1)n1ccc(N2CCC[C@@H](NCC3CCC3)C2)cc1=O` (single isomer, unassigned) [Compound 153], the half-maximal inhibitory concentration (IC50) is over 5 µM in the experiment with Kasumi-1 cells, over 5 µM in the experiment on Caov-3 cells and at most 0.05 µM in experiment [1].

For `CC(c1ccc(N2CCC[C@@H](NCC3CC3)C2)cn1)n1cc(-c2cncc(C3CC3)c2)nn1` (single isomer, unassigned) [Compound 357], the IC50 in the experiment with Kasumi-1 cells is at most 0.5 µM; in the experiment on Caov-3 cells, at most 0.5 µM; in experiment [1], at most 0.05 µM.

Regarding `c1ncc(C2CC2)cc1-c1cn(C2(c3ccc(N4CCC[C@@H](NCC5CC5)C4)cn3)CNC2)nn1` [Compound 349, (R)-N-(cyclopropylmethyl)-1-(6-(3-(4-(5-cyclopropylpyridin-3-yl)-1H-1,2,3-triazol-1-yl)azetidin-3-yl)pyridin-3-yl)piperidin-3-amine], the IC50 in the experiment on Kasumi-1 cells is over 5 µM; with Caov-3 cells it was 0.5 to 5 µM; in experiment [1], at most 0.05 µM.

As to `CC(C)CN[C@@H]1CCCN(c2ccc(C3(n4cc(-c5cncc(C6CC6)c5)nn4)COC3)nc2)C1` [Compound 329, (R)-1-(6-(3-(4-(5-cyclopropylpyridin-3-yl)-1H-1,2,3-triazol-1-yl)oxetan-3-yl)pyridin-3-yl)-N-isobutylpiperidin-3-amine], the IC50 in the experiment on Kasumi-1 cells is at most 0.5 µM; in the experiment on Caov-3 cells, at most 0.5 µM; in experiment [1], at most 0.05 µM.

Take `CC(n1cc(-c2cncc(N3CCC4(CC4)C3)n2)nn1)n1ccc(N2CCC[C@@H](NCC3CC3)C2)cc1=O` (stereo partly drawn) [Compound 235, 1-(1-(4-(6-(5-azaspiro[2.4]heptan-5-yl)pyrazin-2-yl)-1H-1,2,3-triazol-1-yl)ethyl)-4-((R)-3-((cyclopropylmethyl)amino)piperidin-1-yl)pyridin-2(1H)-one]: the figures for the IC50 (with Kasumi-1 cells; in the experiment with Caov-3 cells; in experiment [1]) were at most 0.5 µM, at most 0.5 µM and at most 0.05 µM, respectively.

For `O=c1cc(N2CCC[C@@H](NCC3CC3)C2)ccn1Cn1cc(-c2cncc(N3CCCC3)n2)nn1` [Compound 201, (R)-4-(3-((cyclopropylmethyl)amino)piperidin-1-yl)-1-((4-(6-(pyrrolidin-1-yl)pyrazin-2-yl)-1H-1,2,3-triazol-1-yl)methyl)pyridin-2(1H)-one], the 50% inhibitory concentration (IC50) with Kasumi-1 cells is at most 0.5 µM; in the experiment with Caov-3 cells it was at most 0.5 µM; in experiment [1], at most 0.05 µM.

Consider `c1cc(C2(n3cc(-c4cncc(C5CC5)n4)nn3)COC2)ncc1N1CCC[C@@H](NCC2CC2)C1` [Compound 323, (R)-N-(cyclopropylmethyl)-1-(6-(3-(4-(6-cyclopropylpyrazin-2-yl)-1H-1,2,3-triazol-1-yl)oxetan-3-yl)pyridin-3-yl)piperidin-3-amine], for which the half-inhibitory concentration (IC50) is at most 0.5 µM in the experiment with Kasumi-1 cells, at most 0.5 µM with Caov-3 cells and at most 0.05 µM in experiment [1].
